According to patent publication US11986471B2, “Compounds and methods of use” (Tango Therapeutics, Inc., priority 2018, dated 2024):

Experiments:
PRMT5 [1] = target: T1, PRMT5 (Homo sapiens, UniProt O14744); assay: PRMT5 IC50 assay in the presence of SAM as cofactor; assay type: biochemical
T1 construct: purchased Viva (custom protein)
In short: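 Each compound is tested on PRMT5 in the presence of SAM, of MTA, and without any cofactor. Ki values are then back-calculated using fixed factors of 1.5 (SAM) and 13.5 (MTA), and the two Ki values are compared as a ratio.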

PRMT5 [2] = target: T1, PRMT5; assay: PRMT5 IC50 assay with no cofactor; assay type: biochemical
In short: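 Potency against PRMT5 is compared across cofactor states, where IC50 equals Ki×1.5 with SAM present and Ki×13.5 with MTA present.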

PRMT5 [3] = target: T1, PRMT5; assay: PRMT5 IC50 assay in the presence of MTA as cofactor; assay type: biochemical; details: for IC50: PRMT5, MTA as cofactor
In short: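 For the SAM-containing format, dividing IC50 by 1.5 yields Ki; for the MTA-containing format the divisor is 13.5. A third format without cofactor gives IC50 alone.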

HAP1 MTAP-intact = assay: SDMA in-cell western assay, HAP1 MTAP-intact cell line; assay type: cell-based; details: Homo sapiens
In short: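 Potency reflects cellular SDMA reduction, detected by in-cell western, in HAP1 cells with or without MTAP (endogenous expression versus null).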

HAP1 MTAP-deleted = assay: SDMA in-cell western assay, HAP1 MTAP-deleted cell line; assay type: cell-based; details: for IC50: Homo sapiens, HAP1 MTAP-deleted cell line; for MTAP Intact/Deleted Ratio: IC50 ratio HAP1 MTAP-intact / HAP1 MTAP-deleted
In short: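 These are IC50 values from an in-cell western measuring SDMA. The HAP1 cells used carry no MTAP, in contrast to the isogenic partner line with endogenous MTAP expression.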

[4] = ratio between Ki in the presence of SAM and Ki in the presence of MTA
[5] = ratio between the Ki in the presence of SAM and the Ki in the presence of MTA

T1 sequence (O14744 whole entry): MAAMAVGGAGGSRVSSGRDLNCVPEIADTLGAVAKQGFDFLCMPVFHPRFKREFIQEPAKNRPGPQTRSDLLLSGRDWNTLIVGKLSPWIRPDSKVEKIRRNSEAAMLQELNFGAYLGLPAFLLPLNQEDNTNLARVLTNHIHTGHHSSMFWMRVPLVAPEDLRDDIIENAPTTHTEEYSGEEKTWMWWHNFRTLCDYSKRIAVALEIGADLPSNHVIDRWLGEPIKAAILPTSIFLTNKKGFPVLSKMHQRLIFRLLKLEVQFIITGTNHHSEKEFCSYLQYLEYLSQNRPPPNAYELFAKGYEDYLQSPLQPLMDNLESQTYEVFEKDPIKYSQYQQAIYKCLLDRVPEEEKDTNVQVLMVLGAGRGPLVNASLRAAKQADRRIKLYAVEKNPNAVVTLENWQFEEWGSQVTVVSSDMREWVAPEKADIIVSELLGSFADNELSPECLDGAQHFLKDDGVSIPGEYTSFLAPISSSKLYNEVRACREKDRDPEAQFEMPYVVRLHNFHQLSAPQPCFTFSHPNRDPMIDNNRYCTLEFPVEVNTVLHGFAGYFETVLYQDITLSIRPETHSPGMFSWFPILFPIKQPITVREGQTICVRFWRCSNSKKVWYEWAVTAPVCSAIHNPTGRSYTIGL
T1 sequence (Q9BQA1 whole entry partner): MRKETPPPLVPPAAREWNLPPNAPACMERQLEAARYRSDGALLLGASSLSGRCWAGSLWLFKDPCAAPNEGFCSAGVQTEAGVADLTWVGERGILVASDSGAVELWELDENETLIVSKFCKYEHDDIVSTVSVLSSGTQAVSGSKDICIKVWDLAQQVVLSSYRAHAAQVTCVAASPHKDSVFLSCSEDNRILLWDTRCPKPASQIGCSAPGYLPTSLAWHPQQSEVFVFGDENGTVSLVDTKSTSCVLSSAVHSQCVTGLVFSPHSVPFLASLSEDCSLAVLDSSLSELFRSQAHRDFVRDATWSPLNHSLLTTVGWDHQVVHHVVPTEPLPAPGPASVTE

Row | IC50 (PRMT5 [1]) [nM] | IC50 (PRMT5 [2]; read-out: No Co-factor IC50) [nM] | IC50 (PRMT5 [3]) [nM] | IC50 (HAP1 MTAP-intact) [nM] | IC50 (HAP1 MTAP-deleted) [nM] | IC50 (PRMT5 [2]) [nM] | SMILES | SAM/MTA Ratio (PRMT5 [3]; [4]) | MTAP Intact/Deleted Ratio (HAP1 MTAP-deleted) | SAM/MTA Ratio (PRMT5 [3]; [5])
1 | 500 to 5000 | ≥ 5000 | 500 to 5000 | 1000 to 10000 | 1000 to 10000 | – | Cc1cc(OCc2cnco2)cc2c1CN(C[C@@H](O)CNC(=O)c1ccnc(NC3CCC3)c1)CC2 [Compound 260, 2-(cyclobutylamino)-N-[(2S)-2-hydroxy-3-[8-methyl-6-(oxazol-5-ylmethoxy)-3,4-dihydro-1H-isoquinolin-2-yl]propyl]pyridine-4-carboxamide] | A (a Ki ratio greater than or equal to 10 fold between the Ki in the presence of SAM and the Ki in the presence of MTA) | C* (an IC50 ratio of less than 3 fold between the IC50 in the HAP1 MTAP-intact cell line and the HAP1 MTAP-deleted cell line) | –
2 | 50 to 500 | – | 50 to 500 | ≥ 10000 | 1000 to 10000 | 500 to 5000 | Cc1c(OCc2cnco2)ccc2c1CCN(C[C@@H](O)CNC(=O)c1ccnc(NC3CN(C(=O)C4CC4)C3)c1)C2 [Compound 588, (S)-2-((1-(cyclopropanecarbonyl)azetidin-3-yl)amino)-N-(2-hydroxy-3-(5-methyl-6-(oxazol-5-ylmethoxy)-3,4-dihydroisoquinolin-2(1H)-yl)propyl)isonicotinamide] | – | C* (an IC50 ratio of less than 3 fold between the IC50 in the HAP1 MTAP-intact cell line and the HAP1 MTAP-deleted cell line) | A (a Ki ratio greater than or equal to 10 fold between the Ki in the presence of SAM and the Ki in the presence of MTA)
3 | 50 to 500 | – | 50 to 500 | < 1000 | < 1000 | 500 to 5000 | Cc1ncoc1COc1ccc2c(c1)CCN(C[C@@H](O)CNC(=O)c1cc(NC3CCC3)nc(N3CCN(C)CC3)c1)C2 [Compound 485, 2-(cyclobutylamino)-N-[(2S)-2-hydroxy-3-{6-[(4-methyl-1,3-oxazol-5-yl)methoxy]-1,2,3,4-tetrahydroisoquinolin-2-yl}propyl]-6-(4-methylpiperazin-1-yl)pyridine-4-carboxamide] | – | C* (an IC50 ratio of less than 3 fold between the IC50 in the HAP1 MTAP-intact cell line and the HAP1 MTAP-deleted cell line) | A (a Ki ratio greater than or equal to 10 fold between the Ki in the presence of SAM and the Ki in the presence of MTA)
4 | 500 to 5000 | ≥ 5000 | 500 to 5000 | ≥ 10000 | 1000 to 10000 | – | Cc1c(OCc2cnn[nH]2)ccc2c1CCN(C[C@@H](O)CNC(=O)c1ccnc(NC3CCC3)c1)C2 [Compound 273, (S)—N-(3-(6-((1H-1,2,3-triazol-5-yl)methoxy)-5-methyl-3,4-dihydroisoquinolin-2(1H)-yl)-2-hydroxypropyl)-2-(cyclobutylamino)isonicotinamide] | – | C* (an IC50 ratio of less than 3 fold between the IC50 in the HAP1 MTAP-intact cell line and the HAP1 MTAP-deleted cell line) | –
5 | 50 to 500 | 500 to 5000 | 50 to 500 | < 1000 | 1000 to 10000 | – | CC(=O)N1CCC(Nc2cc(C(=O)NC[C@H](O)CN3CCc4c(ccc(OCc5cn[nH]c5)c4Cl)C3)ncn2)CC1 [Compound 261, 6-[(1-acetyl-4-piperidyl)amino]-N-[(2S)-3-[5-chloro-6-(1H-pyrazol-4-ylmethoxy)-3,4-dihydro-1H-isoquinolin-2-yl]-2-hydroxy-propyl]pyrimidine-4-carboxamide] | A (a Ki ratio greater than or equal to 10 fold between the Ki in the presence of SAM and the Ki in the presence of MTA) | C* (an IC50 ratio of less than 3 fold between the IC50 in the HAP1 MTAP-intact cell line and the HAP1 MTAP-deleted cell line) | –
6 | 50 to 500 | – | 50 to 500 | ≥ 10000 | 1000 to 10000 | 500 to 5000 | CC(=O)N1CCC(Nc2cccc(C(=O)NC[C@H](O)CN3CCc4cc(OCc5cnco5)ccc4C3)c2)CC1 [Compound 527] | – | B* (an IC50 ratio greater than or equal to 3 fold but lower than 10 fold between the IC50 in the HAP1 MTAP-intact cell line and the HAP1 MTAP-deleted cell line) | A (a Ki ratio greater than or equal to 10 fold between the Ki in the presence of SAM and the Ki in the presence of MTA)
7 | 50 to 500 | ≥ 5000 | 50 to 500 | ≥ 10000 | 1000 to 10000 | – | CC(=O)N1CCC(Nc2cc(C(=O)NC[C@H](O)CN3CCc4cc(OCc5conc5C)ccc4C3)ncn2)CC1 [Compound 233, (S)-6-((1-acetylpiperidin-4-yl)amino)-N-(2-hydroxy-3-(6-((3-methylisoxazol-4-yl)methoxy)-3,4-dihydroisoquinolin-2(1H)-yl)propyl)pyrimidine-4-carboxamide] | A (a Ki ratio greater than or equal to 10 fold between the Ki in the presence of SAM and the Ki in the presence of MTA) | C* (an IC50 ratio of less than 3 fold between the IC50 in the HAP1 MTAP-intact cell line and the HAP1 MTAP-deleted cell line) | –
8 | 50 to 500 | 500 to 5000 | 50 to 500 | ≥ 10000 | 1000 to 10000 | – | O=C(NC[C@H](O)CN1CCc2c(ccc(OCc3cnco3)c2Cl)C1)c1ccc(OC2CCN(Cc3ccncc3)CC2)cc1 [Compound 301, (S)—N-(3-(5-chloro-6-(oxazol-5-ylmethoxy)-3,4-dihydroisoquinolin-2(1H)-yl)-2-hydroxypropyl)-4-((1-(pyridin-4-ylmethyl)piperidin-4-yl)oxy)benzamide] | A (a Ki ratio greater than or equal to 10 fold between the Ki in the presence of SAM and the Ki in the presence of MTA) | C* (an IC50 ratio of less than 3 fold between the IC50 in the HAP1 MTAP-intact cell line and the HAP1 MTAP-deleted cell line) | –
9 | 50 to 500 | – | 50 to 500 | ≥ 10000 | 1000 to 10000 | ≥ 5000 | CC(=O)N(C)[C@H]1CC[C@H](Nc2cc(C(=O)NC[C@H](O)CN3CCc4c(ccc(OCc5cnco5)c4C)C3)ncn2)CC1 [Compound 605, N-[(2S)-2-hydroxy-3-{5-methyl-6-[(1,3-oxazol-5-yl)methoxy]-1,2,3,4-tetrahydroisoquinolin-2-yl}propyl]-6-{[(1r,4r)-4-(N-methylacetamido)cyclohexyl]amino}pyrimidine-4-carboxamide] | – | B* (an IC50 ratio greater than or equal to 3 fold but lower than 10 fold between the IC50 in the HAP1 MTAP-intact cell line and the HAP1 MTAP-deleted cell line) | A (a Ki ratio greater than or equal to 10 fold between the Ki in the presence of SAM and the Ki in the presence of MTA)
10 | 50 to 500 | ≥ 5000 | 50 to 500 | ≥ 10000 | ≥ 10000 | – | O=C(NC[C@H](O)CN1CCc2c(ccc(OCc3cnco3)c2Cl)C1)c1ccnc(NC2CCCC(F)(F)C2)c1 (some centres unmarked) [Compound 347] | A (a Ki ratio greater than or equal to 10 fold between the Ki in the presence of SAM and the Ki in the presence of MTA) | C* (an IC50 ratio of less than 3 fold between the IC50 in the HAP1 MTAP-intact cell line and the HAP1 MTAP-deleted cell line) | –
11 | 50 to 500 | – | 50 to 500 | ≥ 10000 | 1000 to 10000 | ≥ 5000 | Cc1ncoc1COc1cc2c(cc1F)CN(C[C@@H](O)CNC(=O)c1ccnc(Nc3cccnc3)c1)CC2 [Compound 600, N-[(2S)-3-[7-fluoro-6-[(4-methyloxazol-5-yl)methoxy]-3,4-dihydro-1H-isoquinolin-2-yl]-2-hydroxy-propyl]-2-(3-pyridylamino)pyridine-4-carboxamide] | – | B* (an IC50 ratio greater than or equal to 3 fold but lower than 10 fold between the IC50 in the HAP1 MTAP-intact cell line and the HAP1 MTAP-deleted cell line) | A (a Ki ratio greater than or equal to 10 fold between the Ki in the presence of SAM and the Ki in the presence of MTA)
12 | 50 to 500 | – | 50 to 500 | 1000 to 10000 | < 1000 | 50 to 500 | CC(=O)N1CC(Nc2cc(C(=O)NC[C@H](O)CN3CCc4cc(OCc5ocnc5C)c(F)cc4C3)nc(N3CCCCC3)n2)C1 [Compound 579, 6-[(1-acetylazetidin-3-yl)amino]-N-[(2S)-3-[7-fluoro-6-[(4-methyloxazol-5-yl)methoxy]-3,4-dihydro-1H-isoquinolin-2-yl]-2-hydroxy-propyl]-2-(1-piperidyl)pyrimidine-4-carboxamide] | – | A* (an IC50 ratio greater than or equal to 10 fold between the IC50 in the HAP1 MTAP-intact cell line and the HAP1 MTAP-deleted cell line) | A (a Ki ratio greater than or equal to 10 fold between the Ki in the presence of SAM and the Ki in the presence of MTA)
